Legend:
Format in all cases: cell-based
PC12 cells [1] = assay: Etoposide-induced apoptosis in PC12 cells, cell viability; conditions: for viability at 1 µM / viability at 3 µM / viability at 10 µM / viability at 30 µM / viability at 0.1 µM / viability at 0.3 µM: Rattus norvegicus; for protective activity in WT PC12 etoposide assay: WT PC12 cells; for viability at 0.1 µM / % Viability 0.1 μM: 0.1 μM compound, vehicle 52.1 ± 7.32; for viability at 0.3 µM / % Viability 0.3 μM: 0.3 μM compound
PC12 cells [2] = assay: Serum starvation-induced apoptosis in PC12 cells, cell viability; conditions: for viability at 1 µM / viability at 3 µM / viability at 10 µM / viability at 30 µM: Rattus norvegicus
PC12 cells [3] = assay: ROS in PC12 cells, CellROX green / DAPI staining after H2O2; conditions: 400 μM H2O2 for 4 hours, FIG. 5A
Procedure: PC12 cells stained with CellROX and DAPI-blue nuclear stain. Greater intensity of green fluorescence indicates greater levels of ROS. Visualized through a microscope (40× magnification, bar=100 μM).
While flupirtine and retigabine are known antioxidants the inventors have shown (FIGS. 5A and 5B) that neuroprotective derivatives operate by a different mechanism of action. […] PC12 cells stained with CellROX and DAPI-blue nuclear stain. Greater intensity of green fluorescence indicates greater levels of ROS. Visualized through a microscope (40× magnification, bar=100 μM).

[4] = 1 μM compound, etoposide-induced apoptosis, PC12 cells
[5] = 3 μM compound, etoposide-induced apoptosis, PC12 cells
[6] = 10 μM compound, etoposide-induced apoptosis, PC12 cells
[7] = 30 μM compound, etoposide-induced apoptosis, PC12 cells
[8] = PC-12, 1 μM compound, etoposide-induced apoptosis, PC12 cells, read-out: % Viability 1 μM
[9] = PC-12, 3 μM compound, etoposide-induced apoptosis, PC12 cells, read-out: % Viability 3 μM
[10] = PC-12, 10 μM compound, etoposide-induced apoptosis, PC12 cells, read-out: % Viability 10 μM
[11] = PC-12, 30 μM compound, etoposide-induced apoptosis, PC12 cells, read-out: % Viability 30 μM
[12] = PC-12, 1 μM compound, serum starvation-induced apoptosis, PC12 cells, vehicle 55.04 ± 8.99, read-out: % Viability 1 μM
[13] = PC-12, 3 μM compound, serum starvation-induced apoptosis, PC12 cells, read-out: % Viability 3 μM
[14] = PC-12, 10 μM compound, serum starvation-induced apoptosis, PC12 cells, read-out: % Viability 10 μM
[15] = PC-12, 30 μM compound, serum starvation-induced apoptosis, PC12 cells, read-out: % Viability 30 μM
[16] = PC-12, read-out: % Viability 1 μM
[17] = PC-12, read-out: % Viability 3 μM
[18] = PC-12, read-out: % Viability 10 μM
[19] = PC-12, read-out: % Viability 30 μM
[20] = PC-12, etoposide-induced apoptosis, PC12 cells
[21] = etoposide-induced apoptosis, PC12 cells

| Compound | viability at 1 µM (PC12 cells [1]; [8]) | viability at 3 µM (PC12 cells [1]; [9]) | viability at 10 µM (PC12 cells [1]; [10]) | viability at 30 µM (PC12 cells [1]; [11]) | viability at 1 µM (PC12 cells [2]; [12]) | viability at 3 µM (PC12 cells [2]; [13]) | viability at 10 µM (PC12 cells [2]; [14]) | viability at 30 µM (PC12 cells [2]; [15]) | also measured |
| --- | --- | --- | --- | --- | --- | --- | --- | --- | --- |
| 2-chloroethyl 6-(4-fluorobenzylamino)-2-aminopyridin-3-ylcarbamate [NK-23-1] | – | – | – | – | – | – | – | – | % Viability 1 μM (PC12 cells [1]; [4]): 54.01 ± 13.43%; % Viability 3 μM (PC12 cells [1]; [5]): 53.92 ± 6.37%; % Viability 10 μM (PC12 cells [1]; [6]): 41.79 ± 4.38%; % Viability 30 μM (PC12 cells [1]; [7]): 40.77 ± 6.98%; % Viability 1 μM (PC12 cells [2]; 1 μM compound, serum starvation-induced apoptosis, PC12 cells, vehicle 55.04 ± 8.99): 84.07 ± 11.85%; % Viability 3 μM (PC12 cells [2]; 3 μM compound, serum starvation-induced apoptosis, PC12 cells): 83.62 ± 5.88%; % Viability 10 μM (PC12 cells [2]; 10 μM compound, serum starvation-induced apoptosis, PC12 cells): 100.15 ± 15.84%; % Viability 30 μM (PC12 cells [2]; 30 μM compound, serum starvation-induced apoptosis, PC12 cells): 106.47 ± 15.46% |
| C=CCOC(=O)Nc1ccc(NCc2ccc(Cl)cc2)nc1N [JG-4-5] | 87.2 ± 19.8% | 79.7 ± 7.48% | 84.3 ± 13.2% | 80.4 ± 24.1% | 72.3 ± 1.45% | 95.2 ± 2.41% | 70.2 ± 9.45% | 71.1 ± 8.61% | – |
| CCOC(=O)Nc1ccc(NCc2ccc(C)cc2)cc1N [JG-32-3, Ethyl (2-amino-4-((4-methylbenzyl)amino)phenyl)carbamate] | 110 ± 39.4% | 136 ± 30.1% | 123 ± 23.2% | 98 ± 22.9% | 62.6 ± 16.7% | 79.54 ± 0.6% | 77.9 ± 1.34% | 71.33 ± 0.03% | protective activity in WT PC12 etoposide assay (PC12 cells [1]): significant increase in potency |
| COC(=O)Nc1ccc(NCc2ccc(F)cc2)nc1N [NK-3-1, Methyl 6-(4-fluorobenzylamino)-2-aminopyridin-3-ylcarbamate] | 74.5 ± 33.1% | 96.6 ± 14.6% | 82.2 ± 23.4% | 63.3 ± 27.4% | 76.9 ± 10.2% | 79.1 ± 8.28% | 72.2 ± 9.15% | 72.3 ± 16.4% | – |
| CC(C)COC(=O)Nc1ccc(NCc2ccc(F)cc2)nc1N [NK-8-1, Isobutyl 6-(4-fluorobenzylamino)-2-aminopyridin-3-ylcarbamate] | 57.9 ± 22.4% | 62.9 ± 2.98% | 46.5 ± 3.36% | 56.1 ± 0.67% | 67.9 ± 12.6% | 77.4 ± 11.7% | 89.7 ± 6.68% | 88.3 ± 10.8% | – |
| CCOC(=O)Nc1ccc(NCc2cccc(C(F)(F)F)c2)nc1N [NK-16-3, Ethyl 6-(3-(trifluoromethyl)benzylamino)-2-aminopyridin-3-ylcarbamate] | 59.9 ± 13.8% | 68.2 ± 7.5% | 60.4 ± 19.4% | 46.4 ± 12.8% | 83.6 ± 14.3% | 80.7 ± 8.11% | 86.9 ± 9.07% | 84.2 ± 16.1% | – |
| COC(=O)Nc1ccc(NCc2cccc(C(F)(F)F)c2)nc1N [NK-16-4, Methyl 6-(3-(trifluoromethyl)benzylamino)-2-aminopyridin-3-ylcarbamate] | 46.7 ± 3.26% | 41.3 ± 10.1% | 28.6 ± 2.14% | 37 ± 3.91% | 92.1 ± 10.2% | 88 ± 8.56% | 97.8 ± 9.35% | 97.6 ± 1800% | – |
| C=CCOC(=O)Nc1ccc(NCc2cccc(C(F)(F)F)c2)nc1N [NK-16-6, Allyl 6-(3-(trifluoromethyl)benzylamino)-2-aminopyridin-3-ylcarbamate] | 78 ± 37.1% | 107 ± 2.3% | 101 ± 9.58% | 87.6 ± 21.9% | 77.1 ± 12.1% | 87.8 ± 10% | 92 ± 13% | 74.5 ± 11.9% | protective activity in WT PC12 etoposide assay (PC12 cells [1]): provides greater activity |
| CCOC(=O)Nc1ccc(NCc2cc(C(F)(F)F)cc(C(F)(F)F)c2)nc1N [NK-17-3, Ethyl (2-amino-6-((3,5-bis(trifluoromethyl)benzyl)amino)pyridin-3-yl)carbamate] | 63.7 ± 22.7% | 75.7 ± 6.39% | 68.1 ± 9.52% | 56 ± 6.26% | 81.8 ± 8.69% | 72.8 ± 12.4% | 78.5 ± 6.27% | 57.9 ± 9.54% | – |
| CC(Cl)OC(=O)Nc1ccc(NCc2ccc(F)cc2)nc1N (centres unmarked) [NK-21-1, 1-chloroethyl 6-(4-fluorobenzylamino)-2-aminopyridin-3-ylcarbamate] | 69.5 ± 13.2% | 88.9 ± 21.5% | 84.3 ± 32.2% | 84.8 ± 33.7% | 74.2 ± 11.5% | 75.6 ± 13.4% | 91.7 ± 6.31% | 84 ± 13.8% | – |
| Nc1ccc(N(Cc2ccc(F)cc2)C(=O)OCc2ccccc2)cc1N [NK-22-6] | 69.1 ± 20.1% | 100 ± 5.4% | 98.9 ± 7.93% | 78.6 ± 23% | 68.1 ± 8.86% | 82.5 ± 10.5% | 74.5 ± 8.48% | 37.4 ± 4.98% | – |
| CCOC(=O)Nc1ccc(NCc2ccc(F)cc2)cc1N [NK-22-13, Ethyl (2-amino-4-((4-fluorobenzyl)amino)phenyl)carbamate, reference compound] | – | – | – | – | – | – | – | – | viability at 1 µM (PC12 cells [1]; [16]): 58.3 ± 2.86%; viability at 3 µM (PC12 cells [1]; [17]): 73.9 ± 13.9%; viability at 10 µM (PC12 cells [1]; [18]): 66.3 ± 17.6%; viability at 30 µM (PC12 cells [1]; [19]): 52.1 ± 7.62%; viability at 1 µM (PC12 cells [2]; [16]): 75.9 ± 15%; viability at 3 µM (PC12 cells [2]; [17]): 77.9 ± 22.6%; viability at 10 µM (PC12 cells [2]; [18]): 85.8 ± 17.9%; viability at 30 µM (PC12 cells [2]; [19]): 76.2 ± 25%; amelioration of reactive oxygen species (ROS) (PC12 cells [3]): do ameliorate ROS |
| CCCOC(=O)Nc1ccc(NCc2ccc(F)cc2)cc1N [NK-30-2, Propyl (2-amino-4-((4-fluorobenzyl)amino)phenyl)carbamate] | 54.1 ± 9.34% | 55.6 ± 7.41% | 61.6 ± 4.82% | 61.6 ± 18.1% | 70.4 ± 3.39% | 78.3 ± 7.18% | 84.6 ± 4.75% | 76.2 ± 1.61% | – |
| CCOC(=O)Nc1ccc(NCc2ccc(-c3ccccc3)cc2)nc1N [NK-57-3, Ethyl (6-(([1,1′-biphenyl]-4-ylmethyl)amino)-2-aminopyridin-3-yl)carbamate] | 63.7 ± 10.1% | 48.9 ± 9.58% | 53.1 ± 14% | 62.3 ± 10.3% | – | – | – | – | viability at 0.1 µM (PC12 cells [1]; [20]): 55.4 ± 14.8%; viability at 0.3 µM (PC12 cells [1]; [20]): 61.7 ± 12.7% |
| CCOC(=O)Nc1ccc(OCc2ccc(C(F)(F)F)cc2)nc1N [NK-60-3, Ethyl (2-amino-6-((4-(trifluoromethyl)benzyl)oxy)pyridin-3-yl)carbamate] | 77.1 ± 7.31% | 69.9 ± 8.54% | 71.4 ± 19.6% | 77 ± 6.87% | – | – | – | – | viability at 0.1 µM (PC12 cells [1]; [20]): 64 ± 11%; viability at 0.3 µM (PC12 cells [1]; [20]): 83.8 ± 11.5% |
| CCOC(=O)Nc1ccc(NCc2ccc(F)cc2F)nc1N [NK-64-3, Ethyl (2-amino-6-((2,4-difluorobenzyl)amino)pyridin-3-yl)carbamate] | 91 ± 19.8% | 78 ± 16.8% | 89.2 ± 4.4% | 90.7 ± 12.7% | – | – | – | – | viability at 0.1 µM (PC12 cells [1]; [20]): 84 ± 21.9%; viability at 0.3 µM (PC12 cells [1]; [20]): 93 ± 14.1% |
| CCOC(=O)Nc1ccc(NCc2ccc(C)cc2C)nc1N [NK-65-3, Ethyl (2-amino-6-((2,4-dimethylbenzyl)amino)pyridin-3-yl)carbamate] | 61.8 ± 9.82% | 87.9 ± 11.4% | 85.7 ± 13.2% | 65.7 ± 19% | – | – | – | – | viability at 0.1 µM (PC12 cells [1]; [20]): 55.5 ± 11.3%; viability at 0.3 µM (PC12 cells [1]; [20]): 56.9 ± 18.4% |
| CCOC(=O)Nc1ccc(NCc2cccc(C)c2)nc1N [NK-66-3, Ethyl (2-amino-6-((3-methylbenzyl)amino)pyridin-3-yl)carbamate] | 101 ± 17.4% | 82.3 ± 31.4% | 86.1 ± 26.9% | 107 ± 9.4% | – | – | – | – | viability at 0.1 µM (PC12 cells [1]; [20]): 94.7 ± 25.8%; viability at 0.3 µM (PC12 cells [1]; [20]): 110 ± 11.3% |
| CCOC(=O)Nc1ccc(NCc2cccc(OC)c2)nc1N [NK-67-3, Ethyl (2-amino-6-((3-methoxybenzyl)amino)pyridin-3-yl)carbamate] | 82.8 ± 19.8% | 87.5 ± 15% | 70.1 ± 3.36% | 63.8 ± 14% | – | – | – | – | viability at 0.1 µM (PC12 cells [1]; [20]): 59.2 ± 3.98%; viability at 0.3 µM (PC12 cells [1]; [20]): 48.6 ± 9.49% |
| Ethyl (6-((4-fluorobenzyl)amino)-4-methylpyridin-3-yl)carbamate [NK-48-3] | – | – | – | – | – | – | – | – | % Viability 0.1 μM (PC12 cells [1]; [21]): 54.78 ± 2.77%; % Viability 0.3 μM (PC12 cells [1]; [21]): 57.46 ± 4.02%; % Viability 1 μM (PC12 cells [1]; [4]): 57.03 ± 1.81%; % Viability 3 μM (PC12 cells [1]; [5]): 53.80 ± 1.98%; % Viability 10 μM (PC12 cells [1]; [6]): 57.06 ± 4.28%; % Viability 30 μM (PC12 cells [1]; [7]): 63.25 ± 3.32% |
| Hexyl (2-amino-6-((4-fluorobenzyl)amino)pyridin-3-yl)carbamate [NK-42-1] | – | – | – | – | – | – | – | – | % Viability 0.1 μM (PC12 cells [1]; [21]): 60.08 ± 3.34%; % Viability 0.3 μM (PC12 cells [1]; [21]): 59.19 ± 4.95%; % Viability 1 μM (PC12 cells [1]; [4]): 87.30 ± 18.26%; % Viability 3 μM (PC12 cells [1]; [5]): 78.46 ± 11.29%; % Viability 10 μM (PC12 cells [1]; [6]): 85.14 ± 11.29%; % Viability 30 μM (PC12 cells [1]; [7]): 78.95 ± 13.17% |
